Columns and labels:
Type in all cases: binding
[1] = molecular target: T1, hCdh1^WD40 (Homo sapiens, UniProt Q9UM11); experiment: SMOR assay, human Cdh1 WD40
T1 construct: human Cdh1 (aa 165–484; pNH164); made in house; host or cells: Sf9 insect cells (baculovirus)
Protocol: (§1) Activators were cloned into the pFastBac HT A vector, with an N-terminal 2xStrep-Tag II. For some experiments, we constructed vectors for expression of the WD40 domains of yeast Cdh1 (aa 241–550; pNH144), human Cdh1 (aa 165–484; pNH164), or human Cdc20 (aa 162–484; pNH188). For SMOR, a C-terminal GFP tag was added. Bacmid plasmids are listed in Supplementary Table 3. Plasmids were transformed into DH10Bac cells, and purified Bacmid was used to transfect Sf9 cells to generate P1 baculovirus, which was used to generate P2 virus. SF9 cells were infected with the P2 virus for 48 h. Flash-frozen pellets were lysed by sonication or high-pressure homogenization in lysis buffer B (50 mM Tris-HCl pH 8, 150 mM KCl, 0.5 mM EDTA, 1 mM DTT, 10% Glycerol, EDTA-free protease inhibitor tablet, 1 µg ml^−1 pepstatin A). After the lysate was applied to the StrepTrap column, the column was washed with wash buffer B (lysis buffer B lacking protease inhibitors) and eluted in the same buffer containing 2.5 mM desthiobiotin.
(§2) For all SMOR experiments, 24 × 50 mm high precision glass coverslips (Bioscience Tools) and drilled microscope slides were passivated with a combination of PEG and PEG-biotin (coverslips) or PEG only (slides) following a previously published protocol for SiMPull[31]. Reaction chambers (~20 µl) were created using double-sided tape and epoxy. Protein was immobilized on the surface with 0.2 mg ml^−1 NeutrAvidin in buffer C (20 mM HEPES pH 7.5, 150 mM KCl, 10% glycerol, 0.05% Tween-20, 1 mM DTT). Excess NeutrAvidin was washed away and incubated with either biotin-conjugated mouse monoclonal anti-Strep-Tag II antibody (LSBio, Cat. No. LS-C203632-100) or biotin-conjugated rabbit polyclonal anti-GFP antibody (Rockland, Cat. No. 600-406-215) diluted in buffer C + BSA (0.1 mg ml^−1; Molecular Biology Grade Bovine Serum Albumin). Activator WD40 and activated APC/C (typically 50 µl containing about 65 ng APC/C, of which only a small fraction is immobilized on the glass) were immobilized using anti-Strep-Tag II, while APC/C alone was immobilized with anti-GFP. SMOR results were similar when performed in the buffer (wash buffer B) used in polarization anisotropy.
(§3) To capture dynamic protein–protein interactions, dye-labeled substrate diluted in buffer C + BSA was added to the chamber containing immobilized proteins. Interactions were imaged by TIRF microscopy as described below. For optimal signal-to-noise ratio, peptide concentration was no greater than 1 nM. Protein substrates included Hsl1 aa 667–872 and a C-terminal HaloTag followed by a TAP tag, and were produced by translation in rabbit reticulocyte lysates using TnT Quick Coupled Transcription/Translation System (Promega) (see Supplementary Table 5 for plasmids). Protein was purified with magnetic IgG beads and labeled on the bead with JF549 or JF646 dye so that unbound dye could be washed away. Purified dye-labeled protein was then cleaved from the beads using TEV protease. Before adding substrate to the reaction chamber, oxygen scavenging reagents were added (10 nM protocatechuate-3,4-dioxygenase, 2.5 mM protocatechuic acid, and 1 mM Trolox)[41]. A detailed description of the SMOR analysis pipeline is found in Supplementary Note 1.
(§4) Microscopy was performed with a Nikon Eclipse TE2000-E with Perfect Focus with a 100 × 1.49na oil, Apo TIRF DIC N2, 0.13-0.2, WD0.12 objective. Movies were recorded using the Andor iXon DU-897E-CSO. For visualizing GFP-tagged protein, a 491 nm laser was used with an ET525/50 (Chroma) filter for emission. For visualizing JF549-labeled substrate, a 561 nm laser was used with an ET595/50 (Chroma) filter for emission. For visualizing all Cy5-labeled peptides and JF646-labeled substrates, a 640 nm laser was used with an ET685/70 filter (Chroma) for emission. […]

[2] = molecular target: T2, hCdc20^WD40 (Homo sapiens, UniProt Q12834); experiment: SMOR assay, human Cdc20 WD40
T2 construct: human Cdc20 (aa 162–484; pNH188); made in house; host or cells: Sf9 insect cells (baculovirus)
T2 sequence (Q12834 162-484): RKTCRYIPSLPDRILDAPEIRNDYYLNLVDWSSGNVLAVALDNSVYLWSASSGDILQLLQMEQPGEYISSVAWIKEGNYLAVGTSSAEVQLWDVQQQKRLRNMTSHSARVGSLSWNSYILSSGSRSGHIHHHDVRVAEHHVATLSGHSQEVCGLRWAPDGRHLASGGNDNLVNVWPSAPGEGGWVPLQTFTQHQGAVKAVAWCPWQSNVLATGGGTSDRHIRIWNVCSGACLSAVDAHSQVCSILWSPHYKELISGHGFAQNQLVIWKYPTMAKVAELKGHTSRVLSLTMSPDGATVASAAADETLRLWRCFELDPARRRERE
Protocol: as §1, §2, §3, §4

[3] = molecular target: T3, Cdh1 WD40 domain (yeast) (Saccharomyces cerevisiae, UniProt P53197); experiment: Fluorescence anisotropy, 10 nM Cy5-labeled degron peptide, yeast Cdh1 WD40; settings: up to 30.6 µM Cdh1^WD40
T3 construct: the WD40 domains of yeast Cdh1 (aa 241–550; pNH144); 2xStrep-Tag II (N); made in house; host or cells: Sf9 insect cells (baculovirus)
T3 sequence (P53197 241-550): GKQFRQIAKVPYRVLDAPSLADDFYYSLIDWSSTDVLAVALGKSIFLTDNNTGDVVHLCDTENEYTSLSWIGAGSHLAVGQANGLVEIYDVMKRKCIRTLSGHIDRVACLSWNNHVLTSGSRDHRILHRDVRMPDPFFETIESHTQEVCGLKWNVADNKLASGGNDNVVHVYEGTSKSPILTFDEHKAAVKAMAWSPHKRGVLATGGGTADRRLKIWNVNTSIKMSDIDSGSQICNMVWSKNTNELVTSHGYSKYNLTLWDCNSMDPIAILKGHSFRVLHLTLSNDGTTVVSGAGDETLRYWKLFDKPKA
Description: To determine the affinities of APC/C degrons for their binding sites, we first used conventional equilibrium binding assays of degron peptide binding to the activator. We used the baculovirus system to produce the WD40 domain of Cdh1 from the budding yeast Saccharomyces cerevisiae and measured fluorescence anisotropy to assess the binding of fluorescently-tagged degron peptides at increasing activator concentrations. The WD40 domain of yeast Cdc20 could not be expressed and was not studied.
as §1
Fluorescent degron peptides carried a C-terminal Cy5 label (CPC Scientific) and are listed in Supplementary Table 4. For anisotropy experiments, 10 nM fluorescent peptide was mixed with various concentrations of purified Cdh1 WD40 in wash buffer B at room temperature for 1 min, which we determined was sufficient for the binding reaction to reach equilibrium. Fluorescence was measured on a K2 Multifrequency Fluorometer at 25 °C. All Cy5-labeled peptides were excited with polarized light at 635 nm and emission was detected using a 700/75 nm bandpass filter (ET series, Chroma). […] Data were fitted to one-site equilibrium binding using GraphPad Prism version 8.4 to determine KD. Results were the same when peptide binding was measured in the buffer used in SMOR assays (buffer C, below).

[4] = molecular target: T4, Cdh1^WD40 (Saccharomyces cerevisiae, UniProt P53197); experiment: SMOR assay (single-molecule off-rate, TIRF), yeast Cdh1^WD40
T4 construct: the WD40 domains of yeast Cdh1 (aa 241–550; pNH144); made in house; host or cells: Sf9 insect cells (baculovirus)
T4 sequence (P53197 241-550): T3 sequence (P53197 241-550)
Protocol: as §1, §2, §3, §4

[5] = Supplementary Table 1, replicate 1
[6] = Supplementary Table 1, replicate 2

T1 sequence (Q9UM11 165-484): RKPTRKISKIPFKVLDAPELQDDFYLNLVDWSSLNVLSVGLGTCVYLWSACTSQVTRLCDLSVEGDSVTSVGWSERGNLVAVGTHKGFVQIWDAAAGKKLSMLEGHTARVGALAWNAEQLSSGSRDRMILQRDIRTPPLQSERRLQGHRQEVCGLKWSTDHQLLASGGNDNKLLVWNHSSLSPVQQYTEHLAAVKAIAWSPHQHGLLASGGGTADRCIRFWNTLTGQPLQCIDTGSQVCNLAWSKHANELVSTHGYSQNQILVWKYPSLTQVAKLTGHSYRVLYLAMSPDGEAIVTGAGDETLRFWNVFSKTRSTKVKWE

Substance: SKAAQFMLYEETAEERNI-K(Cy5) [Acm1 ABBA, Cy5-labeled Cdh1-specific ABBA motif from pseudosubstrate yeast protein Acm1]
- binding (in words) [1]: No binding
- Dwell Time (in words) [1, 5]: no binding
- Dwell Time (in words) [1, 6]: no binding
- binding (in words) [2]: No binding
- Dwell Time (in words) [2, 5]: no binding
- Dwell Time (in words) [2, 6]: no binding
- binding to Cdh1 (in words) [3]: bound with very low affinity to Cdh1
- Dwell Time (in words) [4, 5]: single frame
- Dwell Time (in words) [4, 6]: single frame

From paper PMC8764033, “Single-molecule analysis of specificity and multivalency in binding of short linear substrate motifs to the APC/C” (Nature Communications, 2022)
